# Data: patent publication US4073885A (The United States of America as represented by the …, priority 1976, dated 1978)
# What was measured:
# [1] = tested on: opiate receptor; assay: Brain enzymatic inactivation as assessed by opiate receptor binding inhibition
# Protocol: Male rats weighing 180-220 g (Sprangue-Dawley) were decapitated and each brain with the cerebellum removed was homogenized in 150 ml of ice-cold standard buffer (0.05 M Tris-HCl, ph 7.4 at 37°). After centrifugation at 4° at 12,000 × g, the membranes were reconstituted in standard buffer. After recentrifugation, each brain was suspended in 10 ml of the standard buffer.
# Aliquots of the freshly prepared membrane preparation (100 μl) were incubated for 1 hr at 0° with 100 mM NaCl in a final volume of 0.5 ml with ^3 H!naloxone (Amersham-Searle, 34 Ci/mmol) in a concentration of 1.3 nM (20,000 cpm). After rapid filtration and washing with two 7-ml portions of ice-cold standard buffer, membrane-laden filters were transferred and counted at 40-45% efficiency at least 6 hours after shaking with detergent scintillation fluor (Aquasol, New England Nuclear).
# The ability of the blood inhibitory factor eluted from the thin-layer plate to be degraded by enzymes present in brain was examined by incubating the blood substance with membranes or supernatant fluid from rat brain, terminating the enzyme action by boiling, and subsequently adding the product to the opiate receptor assay (see Table 1).
# Rat brains were homogenized in 100 volumes (wt/vol) of standard buffer an
# the particulate fraction and supernatant fluid were obtained by
# centrifugation for 10 min. at 40,000 × g. After incubation under th
# specified conditions in a total volume of 1 ml with met-enkephalin or
# the supernatant fluid were assessed for inhibition in the standard opiate
# [2] = tested on: opiate receptor; assay: Opiate receptor assay ([3H]naloxone binding, rapid filtration, rat brain membranes); conditions: 100 nM
# [3] = Chang et al., cited from earlier work
# [4] = tested on: rat; assay: Assessment of analgesia: rat tail-flick test after micro-injection into periaqueductal gray matter; format: in vivo
# Protocol: Eight rats were stereotaxically implanted with chronic indwelling cannulae guides constructed from 23 gauge TW stainless steel tubing. […] Testing was initiated approximately 1 week following surgery. The antinociceptive actions of morphine and anodynin were assessed using a modification of the D'Armour and Smith paradigm in which the latency for a rat to remove its tail from under a radiant heat source is measured in seconds. Baseline "tail-flick" latencies were always determined approximately 30 minutes prior to a drug or control injection by four trials separated by 10 sec.
# The solutions were injected into the central gray matter with 30 guage injectors which extended 2 mm past the tip of the guide cannula. The injection rate was 15 μl/min. Testing for antinociception was initiated immediately after an injection. Animals were tested at 1-min. intervals for 5 min. and then at 10, 15, 30, and 60 min. At the end of the study, all animals were sacrificed and their brains were prepared following standard histological procedures to localize cannulae placements.
structure (smiles),measurement,setting,value
"CSCC[C@H](NC(=O)[C@H](Cc1ccccc1)NC(=O)CNC(=O)CNC(=O)[C@@H](N)Cc1ccc(O)cc1)C(=O)O [Net-Enkephalin, H-Tyr-Gly-Gly-Phe-Met-OH]",% Inhibition Stereospecific Binding,"[1]; pre-incubation: Buffer, 1 hr, 37°",65%
same,% Inhibition Stereospecific Binding,"[1]; pre-incubation: rat brain particulate fraction, 0.25 hr, 37°",39%
same,% Inhibition Stereospecific Binding,"[1]; pre-incubation: rat brain particulate fraction, 1 hr, 0°",65%
same,% Inhibition Stereospecific Binding,"[1]; pre-incubation: rat brain particulate fraction, 1 hr, 37°",2%
same,% Inhibition Stereospecific Binding,"[1]; pre-incubation: rat brain supernatant fluid, 1 hr, 37°",1%
C=CCN1CC[C@@]23CCCC[C@@H]2[C@@H]1Cc1ccc(O)cc13 [dextrallorphan],effect on 3H-naloxone binding (control incubation),[2],did not significantly reduce binding
CC(C)C[C@H](NC(=O)[C@H](Cc1ccccc1)NC(=O)CNC(=O)CNC(=O)[C@@H](N)Cc1ccc(O)cc1)C(=O)O [enkephalin],destruction in the brain,[3],rapidly destroyed
same,time after micro-injection at which analgesia disappears completely,[3],1 to 2 min
same,dose required to elicit analgesia relative to morphine,[3]; micro-injection,at least 40 times
same,Loss of opiate receptor inhibitory activity by brain enzymes,[1]; incubation with membranes or supernatant fluid from rat brain,completely and rapidly reversed
CN1CC[C@]23c4c5ccc(O)c4O[C@H]2[C@@H](O)C=C[C@H]3[C@H]1C5 [morphine],antinociceptive action after pretreatment with naloxone,"[4]; 20 mg/kg naloxone intraperitoneally, 15 min prior",blocked
same,behavioral effect (immobility),[4]; central gray micro-injection in rats,stuperous immobility
